Here are results for 4 compounds from US20250296937A1, “CYCLIC BISBENZYL TETRAHYDROISOQUINOLINE COMPOUND, AND PREPARATION METHOD THEREFOR AND USE THEREOF” (Shanghai Institute of Materia Medica, Chinesse Academy of …, priority 2021, published 2025).

Each structure is given as a SMILES string. “Also recorded” adds a separate entry of the source.

The test system of test [1] is delta mutant strain of SARS-CoV-2. The format is cell-based. As to conditions: for EC50: read-out: Inhibition against viral replication of delta mutant strain EC50.
Test [2] deals with South African mutant strain of SARS-CoV-2. In kind it is cell-based. As to conditions: for EC50: read-out: Inhibition against viral replication of South African mutant strain EC50.

Consider `CCCCNC(=O)Oc1ccc2cc1Oc1ccc(cc1)C[C@H]1c3c(cc(OC)c(OC)c3Oc3cc4c(cc3OC)CCN(C)[C@@H]4C2)CCN1C` [Compound 2], for which, in test [1], the “inhibition against the delta strain” value was “strong inhibition; also recorded: significantly inhibited” and the EC50 came out at 300 nM.
As for `COc1cc2c3cc1Oc1c(OC)c(OC)cc4c1[C@H](Cc1ccc(cc1)Oc1cc(ccc1C(N)=O)C[C@H]3N(C)CC2)N(C)CC4` [Compound 4], in test [1], the “inhibition against the delta strain” value is given as “strong inhibition; also recorded: significantly inhibited” and the EC50 is 1500 nM.
On to `CNC(=O)c1ccc2cc1Oc1ccc(cc1)C[C@H]1c3c(cc(OC)c(OC)c3Oc3cc4c(cc3OC)CCN(C)[C@@H]4C2)CCN1C` [Compound 5], for which, in test [2], the “inhibition against the South African strain” value is “strong inhibition; also recorded: significantly inhibited” and the EC50 was determined as 2700 nM.
In the case of `COc1cc2c3cc1Oc1c(OC)c(OC)cc4c1[C@H](Cc1ccc(cc1)Oc1cc(ccc1C(=O)NC1CC1)C[C@H]3N(C)CC2)N(C)CC4` [Compound 6], in test [2], the “inhibition against the South African strain” value was “strong inhibition; also recorded: significantly inhibited” and the EC50 turned out to be 2200 nM.
